In patent US7276523B2, “Aminopyridine derivatives as estrogen receptor modulators” (SmithKline Beecham Corporation, priority 2001, dated 2007) one finds Ki data, which are given here for 12 compounds.

Assay [1] has as its target T1, GST-hERα (ligand binding domain) (Homo sapiens, UniProt P03372).
T1 construct: made in house; host or cells: E. coli BL21(DE3)pLysS
T1 sequence (P03372 311-547 limits assumed): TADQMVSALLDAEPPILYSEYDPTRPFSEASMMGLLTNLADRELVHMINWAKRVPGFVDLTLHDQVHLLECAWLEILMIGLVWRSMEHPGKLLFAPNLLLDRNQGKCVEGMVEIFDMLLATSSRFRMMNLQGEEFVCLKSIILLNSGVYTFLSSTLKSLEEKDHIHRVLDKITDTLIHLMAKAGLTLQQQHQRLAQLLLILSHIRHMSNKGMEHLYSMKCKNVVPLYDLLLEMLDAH
Put plainly: Competition binding assay (SPA, [3H]estradiol), ER alpha. The following applies: read-out: Avg. ER alpha Ki (n). The protocol:
The ligand binding domain of both ERα and ERβ were subcloned into pGEX-2T vector, which had been modified to contain KpnI and BamHI restriction, sites in the multiple cloning region. GST-hERα and GST-hERβ proteins were made by transforming BL21(DE3)pLYS S competent cells with the appropriate expression plasmid. […] The cells were collected by centrifugation and resuspended in lysis buffer (50 mM Tris pH 7.9; 250 mM KCl; 1% Triton X-100; 10 mM DTT; 1 mM PMSF). The lysate was then placed on dry ice until completely frozen. The frozen lysate was thawed and centrifuged 20 min at 4° C. at 80 K rpm in a TLA 100.2 rotor in a Beckman TL-100 ultracentrifuge. The supernatant was retained and glycerol was added to a final concentration of 10%. The protein content of the supernatant was quantitated using the BioRad Protein Assay Reagent. The protein was then stored at −80° C. until used in the binding assay.
Polylysine coated Yttrium Silicate SPA beads (Amersham #RPNQ 0010) was resuspended in assay buffer [10 mM potassium phosphate buffer pH 7.0 containing 2 mM EDTA, 50 mM NaCl, 1 mM DTT, 2 mM CHAPS, 10% glycerol] to a concentration of 1 g/60 ml. 30 ul (0.5 mg) of the SPA beads was then added to each well of a Packard OptiPlate (Packard 6005190, Packard Instruments, Meriden, Conn.). […] The plates were shaken vigorously for two hours then counted on a Packard TopCount using the protocol for counting tritium yttrium silicate SPA beads. Data analysis was done by standard methods. % Bound was calculated for each concentration of each test compound using the equation % Bound=100*((Test−NS)/(T−NS)). % Bound was plotted vs concentration and curve fitting was accomplished using non-linear regression.
Saturation binding assays were run similarly to competition assays.

For assay [2], the target named is T2, GST-hERβ (ligand binding domain) (Homo sapiens, UniProt Q92731).
T2 construct: made in house; host or cells: E. coli BL21(DE3)pLysS
T2 sequence (Q92731 264-498 limits assumed): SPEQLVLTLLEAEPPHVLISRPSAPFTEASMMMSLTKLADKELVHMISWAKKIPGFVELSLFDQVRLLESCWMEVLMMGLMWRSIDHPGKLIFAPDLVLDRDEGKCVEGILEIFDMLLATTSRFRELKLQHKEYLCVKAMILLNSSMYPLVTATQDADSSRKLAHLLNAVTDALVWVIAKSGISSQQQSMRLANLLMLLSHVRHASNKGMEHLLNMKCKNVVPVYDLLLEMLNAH
Put plainly: Competition binding assay (SPA, [3H]estradiol), ER beta. The protocol:
The ligand binding domain of both ERα and ERβ were subcloned into pGEX-2T vector, which had been modified to contain KpnI and BamHI restriction, sites in the multiple cloning region. GST-hERα and GST-hERβ proteins were made by transforming BL21(DE3)pLYS S competent cells with the appropriate expression plasmid. Liquid cultures containing standard Luria-Bertani (LB) broth with 0.1 mg/ml ampicillin and 0.033 mg/ml chloramphenicol were grown at 37° C. to an OD600 of 0.5-1.0 then induced with IPTG for 2-3 hours. The cells were collected by centrifugation and resuspended in lysis buffer (50 mM Tris pH 7.9; 250 mM KCl; 1% Triton X-100; 10 mM DTT; 1 mM PMSF). The lysate was then placed on dry ice until completely frozen. The frozen lysate was thawed and centrifuged 20 min at 4° C. at 80 K rpm in a TLA 100.2 rotor in a Beckman TL-100 ultracentrifuge. The supernatant was retained and glycerol was added to a final concentration of 10%. The protein content of the supernatant was quantitated using the BioRad Protein Assay Reagent. The protein was then stored at −80° C. until used in the binding assay.
Polylysine coated Yttrium Silicate SPA beads (Amersham #RPNQ 0010) was resuspended in assay buffer [10 mM potassium phosphate buffer pH 7.0 containing 2 mM EDTA, 50 mM NaCl, 1 mM DTT, 2 mM CHAPS, 10% glycerol] to a concentration of 1 g/60 ml. 30 ul (0.5 mg) of the SPA beads was then added to each well of a Packard OptiPlate (Packard 6005190, Packard Instruments, Meriden, Conn.). […] [2, 4, 6, 7, 16, 17-3H(N)]-Estradiol was added as a 30 ul aliquot to give a final assay concentration of 1 nM. To give a final volume of 100 ul, either 10 ul of a test compound solution (typically in 10% DMSO as solvent), solvent containing no test compound (to determine total binding, T), or solvent containing 17-b-estradiol at 100 uM (to determine non-specific binding, NS) were finally added to the plate. The plates were shaken vigorously for two hours then counted on a Packard TopCount using the protocol for counting tritium yttrium silicate SPA beads. Data analysis was done by standard methods. % Bound was calculated for each concentration of each test compound using the equation % Bound=100*((Test−NS)/(T−NS)). % Bound was plotted vs concentration and curve fitting was accomplished using non-linear regression.
Saturation binding assays were run similarly to competition assays. […] [2, 4, 6, 7, 16, 17-3H(N)]-Estradiol was added such that the final concentration ranged from 0.1 to 100 nM.

The term Ki denotes a dissociation constant, usually derived from enzyme kinetics or from competition with a known ligand. Consider `Cc1cc(O)ccc1-c1cc(-c2ccccc2)cc(N(C)CCc2ccccc2)n1` [Example 6, 3-methyl-4-{6-[methyl(2-phenylethyl)amino]-4-phenyl-2-pyridinyl}phenol], for which the Ki in assay [1] turned out to be 160 nM; in assay [2] it was 680 nM.

As for `CCCCN(C)c1cc(-c2ccccc2)cc(-c2cccc(O)c2)n1` [Example 12, 3-{6-[butyl(methyl)amino]-4-phenyl-2-pyridinyl}phenol], the figures for the inhibitory constant (Ki) in assay [1] and in assay [2] were 660 nM and 790 nM, respectively.

Take `Cc1cc(O)ccc1-c1cc(-c2ccccc2)cc(N(C)Cc2ccccc2)n1` [Example 15, 4-{6-[benzyl(methyl)amino]-4-phenyl-2-pyridinyl}-3-methylphenol]: the inhibition constant (Ki) in assay [1] came to 380 nM; in assay [2] it was 1120 nM.

Consider `Cc1cc(O)ccc1-c1cc(-c2ccccc2)cc(N(C)Cc2cccc3ccccc23)n1` [Example 18, 3-methyl-4-{6-[methyl(1-naphthylmethyl)amino]-4-phenyl-2-pyridinyl}phenol], for which the Ki came to 450 nM in assay [1] and 1410 nM in assay [2].

As for `CC(C)CCN(C)c1cc(-c2ccccc2)cc(-c2ccc(O)cc2)n1` [Example 20, 4-{6-[isopentyl(methyl)amino]-4-phenyl-2-pyridinyl}phenol], the figures for the Ki in assay [1] and in assay [2] were 620 nM and 1260 nM, respectively.

As for `Cc1cc(O)ccc1-c1cc(-c2ccccc2)cc(N(C)CCC(C)C)n1` [Example 21, 4-{6-[isopentyl(methyl)amino]-4-phenyl-2-pyridinyl}-3-methylphenol], the inhibition constant (Ki) was 210 nM in assay [1] and 660 nM in assay [2].

As to `Cc1cc(O)ccc1-c1cc(-c2ccccc2)cc(N(C)CCc2ccccn2)n1` [Example 23, 3-methyl-4-(6-{methyl[2-(2-pyridinyl)ethyl]amino}-4-phenyl-2-pyridinyl)phenol], the Ki in assay [1] is 1260 nM; in assay [2], over 3000 nM.

For `CCCN(Cc1ccccn1)c1cc(-c2ccccc2)cc(-c2ccc(O)cc2C)n1` [Example 26, 3-methyl-4-{4-phenyl-6-[propyl(2-pyridinylmethyl)amino]-2-pyridinyl}phenol], the Ki in assay [1] turned out to be 70 nM; in assay [2], 330 nM.

In the case of `CCN(Cc1ccncc1)c1cc(-c2ccccc2)cc(-c2ccc(O)cc2C)n1` [Example 28, 4-{6-[ethyl(4-pyridinylmethyl)amino]-4-phenyl-2-pyridinyl}-3-methylphenol], the inhibition constant Ki turned out to be 830 nM in assay [1] and 1000 nM in assay [2].

Take `Cc1cc(O)ccc1-c1cc(-c2ccccc2)cc(N2CCC(Cc3ccccc3)CC2)n1` [Example 29, 4-[6-(4-benzyl-1-piperidinyl)-4-phenyl-2-pyridinyl]-3-methylphenol]: the results for the inhibition constant Ki in assay [1] and in assay [2] were 20 nM and 110 nM, respectively.

For the compound `Cc1cc(O)ccc1-c1cc(-c2ccccc2)cc(N(CCc2ccccc2)Cc2ccccc2)n1` [Example 31, 4-{6-[benzyl(2-phenylethyl)amino]-4-phenyl-2-pyridinyl}-3-methylphenol], the results for the Ki in assay [1] and in assay [2] were 130 nM and 250 nM, respectively.

With `CCOCCN(CCOCC)c1cc(-c2ccccc2)cc(-c2ccc(O)cc2C)n1` [Example 32, 4-{6-[bis(2-ethoxyethyl)amino]-4-phenyl-2-pyridinyl}-3-methylphenol], the Ki in assay [1] came to 2000 nM; in assay [2], 1170 nM.
